Results taken from US11484483B2, “Topical lotion having sanitizing properties” (Shear Kershman Laboratories, Inc, priority 2020, dated 2022).

System: E. coli strain 25922
Assay: Efficacy Study of E. coli Strain 25922 (coupon touch transfer to TSA plate)
Type: cell-based
Settings: 60 s contact time, Rep 1 and 2
Procedure: On a coupon, 0.05 mL of the inocula (E. coli strain 25922) was added to the center of each test coupon and left to dry. Using a sterile glove, 0.05 grams of the test lotion was mechanically rubbed onto the test coupon to mimic rubbing hand sanitizer onto the skin of hands. There was a contact time of either 60 seconds or 4 hours allowed to lapse prior to placing the coupon touch transfer to the trypticase soy agar (TSA) plate. The coupon was then placed onto the TSA plate and allowed contact for 15 seconds in 3 different locations. The plates were then incubated for 24 hours at 37° C.

[1] = 0.05 grams lotion on inoculated coupon, TNTC = Too Numerous to Count

CC(C)O [Control 17, isopropyl alcohol]
Placement 1/CFU [1]: 0 CFU | Placement 2/CFU [1]: 0 CFU | Placement 3/CFU [1]: 0 CFU | Log Reduction (Criteria ~5 Log Reduction in 60 sec.): 6 Log
